The assay relates to NCI-H460. In words: Cytotoxicity against human H460 cells. Type of assay: functional, cell-based.

`C=C1[C@H]2C[C@@]3(OC(=O)c4ccccc4)C(=O)[C@@H]4[C@](O)(COC(C)=O)[C@@H](O)C[C@H](O)[C@@]4(C)[C@H](O)[C@@](O)(O2)[C@@H]1C3(C)C` had a 50% inhibitory concentration (IC50) of 95.2 µM.

Regarding `CC(=O)O[C@@]12CO[C@@H]1C[C@@H](O)[C@@]1(C)C(=O)C(=O)C3=C(C)[C@@H](O)C[C@@](O)([C@@H](OC(=O)c4ccccc4)[C@H]21)C3(C)C`, half-maximal inhibition (IC50) was put at 60 µM.

`CC(=O)O[C@@]12CO[C@@H]1C[C@H](O)[C@@]1(C)C(=O)[C@H](O)C3=C(C)[C@@H](O)C[C@@](O)([C@@H](OC(=O)c4ccccc4)[C@H]21)C3(C)C` had an IC50 of 3.1 µM.

For the compound `C=C1[C@H]2C[C@@]3(OC(=O)c4ccccc4)C(=O)[C@@H]4[C@]5(OC(C)=O)CO[C@@H]5C[C@H](O)[C@@]4(C)[C@H](O)[C@@](O)(O2)[C@@H]1C3(C)C`, the midpoint of inhibition, the IC50, lay at 51.5 µM.

The values above are taken from ChEMBL document CHEMBL1154376, “Anomalous microbial transformations on the taxane ring of 10-DAB by a strain of the fungus Curvularia lunata: transbenzoylation, transacetylation, and opening of the oxetane ring” (J Nat Prod, 2009).
